Experimental data from patent US5776957A, “Nornicotine enantiomers for use as a treatment for dopamine related conditions and disease states” (The University of Kentucky Research Foundation, priority 1996, dated 1998).
pEC50: −log10 of the molar value. Entries after “also recorded” stand apart in the source; their conditions may differ. Read-outs that look alike come from different tables or passages of the source.

Tests used:
[1] = Amphetamine drug discrimination (substitution tests); type: in vivo, rat
Protocol: Rats were trained in on two-lever food-reinforced operant tasks to discriminate amphetamine (1 mg/kg) from saline. After discrimination training stabilized, test doses of amphetamine (0.0625-2.0 mg/kg), nicotine (0.1-1.0 mg/kg) or nornicotine (1-10 mg/kg) were assessed for their ability to substitute for the amphetamine training dose during brief test sessions in which food reinforcement was withheld.
Nine male Sprague-Hawley rats were obtained from Harlan Industries (Indianapolis, Ind.) and were caged individually with water continuously available. Food access was restricted in order to maintain body weights at approximately 80% of free-feeding weight. Prior to the start of the experiment, all rats received a single injection of amphetamine (1 mg.kg, IP) as part of an unrelated experiment. Apparatus Six operant chambers (ENV-001, Med Associates, St. Albans, Vt.) enclosed in a sound attenuating environment were used. Located in the bottom center of the front panel in each chamber was a 5×4.-cm opening to a recessed food tray. Two metal response levers were located on the front panel, one on each side of the food tray. The center of each lever was mounted 7.3 cm from the grid floor. A 28-Vcue light, 3 cm in diameter, was centered 6 cm above each lever. A personal computer, interfaced to the chamber with Med Associates equipment, controlled the experimental sessions and collected data.
The general procedures utilized to establish amphetamine discrimination were similar to those outlined previously (13). Briefly, rats were first given access to food pellets (45 mg sucrose pellet, Noyes Co., Lancaster, N.H.) dispensed noncontingently into the food tray with both levers present. One lever was then removed and the rat was shaped to depress the other lever for food reinforcement. Following this, rats received 15-min daily sessions in which the lever (left or right) available for food reinforcement was alternated daily. […] The start of each session was signaled by the onset of both cue lights mounted above the levers, and the termination of each session was signaled by the offset of these lights. This training phase was continued until the rat earned 20 reinforces on an FR25 schedule for two days.
Amphetamine discrimination training was conducted Monday through Friday. For this training, both levers were mounted in the chamber. Amphetamine (A; 1 mg/kg) or saline (S), was injected IP 15 min prior to the start of the session, with the order of injections being either AASS or SSAA. The left lever was designated as the amphetamine-correct lever for 4 rats, while the right lever was amphetamine -correct for 5 rats. On Monday, Wednesday and Friday, injection-appropriate responding was food-reinforcedon an FR25 schedule for the entire 15-min session. However, 2-min extinction periods were instituted at the beginning of sessions on Tuesday and Thursday (one amphetamine and one saline test per week) to assess the control of amphetamine (or saline) over responding. […] During the remaining 13 min of these sessions, contingent reinforcement for injection-appropriate responding was reinstated. This phase of training was continued until the rat completed the first FR25 on the correct lever for 10 consecutive sessions and also completed 80% or more responses on the injection-appropriate lever during 4 consecutive extinction periods.
The substitution phase was identical to the previously described amphetamine discrimination phase, except for the Friday session, which was decreased to a 4-min extinction session with no food available.

[2] = system: mouse striatal synaptosomes; conditions: Grady et al., cited from earlier work
[3] = Locomotor activity assay, acute and repeated treatment, S(-) nicotine challenge, saline challenge; type: in vivo, rat; conditions: for cumulated locomotor activity after saline challenge: S(-) nicotine 1 mg/kg group; for cumulated locomotor activity vs saline-control: S(-) nicotine 1 mg/kg
Protocol: (I mg/kg), norNIC (0.3-10 mg/kg) or R(+) norNIC (0.3-10 mg/kg) was administered peripherally (s.c., 8 injections once every 48 hrs) to groups of rats and locomotor activity was assessed for 50 min immediately after each injection.
In the present study, S(-) nicotine (1 mg/kg), R(+) nornicotine (1-10 mg/kg), S(-) nornicotine (1-10 mg/kg), or vehicle (saline) were administered s.c. to groups of rats (n=6) acutely or repeatedly (8 injections once every 48 hrs). Locomotor activity was measured during 50 min sessions immediately following drug or vehicle administration.
Male Sprague-Hawley rats (225-250 g) from Harlan Laboratories were housed two per cage with free access to food and water.
Activity was recorded automatically in a wooden test-chamber measuring 30×28×43 cm high. The chamber had white walls and a wire mesh floor over pine chip bedding. Two photobeams located 4.5 cm above the floor divided the chamber into four equal quadrants. Electromechanical equipment located in an adjacent room recorded photobeam interruptions automatically. A white noise generator provided an ambient 70 dB background noise in the test room in order to minimize extraneous sounds that might influence the animal's behavior in the test chamber. Rats were habituated to the chamber for 50 min on each of three consecutive days.
On the day immediately after the third habituation session, rats were randomly divided into groups (n=6/group) and were administered s.c. either S(-) nicotine (1 mg/kg), R(+) nornicotine (0.3, 1, 3 and 10 mg/kg), or vehicle (saline) to determine acute drug effects on locomotor activity. In a separate experiment, rats (n=6/group) were administered s.c. either S(-) nicotine (1 mg/kg), S(-) nornicotine (0.3, 1, 3 and 10 mg/kg), or vehicle (saline). To determine the effect of repeated drug administration on locomotor activity, drug or vehicle was administered respectively in the test-room once every 48 hrs for a total of 8 injections. After each injection, locomotor activity was recorded during a 50 min session (five 10-min blocks). On the ninth injection day (48 hrs following injection 8), each group of rats was administered a challenge dose (1 mg/kg) of S(-) nicotine in the test-room, and locomotor activity was determined immediately thereafter. On the tenth injection day, each group of rats was administered saline and locomotor activity recorded to determine potential conditioning effects of the repeated drug administration.
Post hoc analysis of pairwise comparisons was performed with Duncan's New Multiple Range test.

CN1CCC[C@H]1c1cccnc1 [S(-) nicotine]
total number of lever presses ([1]; 15 min): significant decreases in total number of lever presses | plateau of dose-effect curve, amphetamine-appropriate responding ([1]; 45 min): 50 | total number of lever presses ([1]; 45 min): significant decrease in total number of lever presses | amphetamine-correct responding reached by individual rats ([1]; any dose, none of the rats reached): < 80% | amphetamine-appropriate responding ([1]; nicotine 1 mg/kg, 15 min): Approximately 50% | amphetamine-appropriate responding (maximum) ([1]; nicotine 1 mg/kg, 45 min): approximately 50% | amphetamine-correct responses, individual rats ([1]; nicotine 1 mg/kg, 45 min): 31-59% | amphetamine-appropriate responding (partial substitution) ([1]; nicotine 0.1-1.0 mg/kg, nornicotine 1-10 mg/kg): approximately 50% | relative potency, nicotine vs nornicotine ([1]; partial substitution for amphetamine): more potent than nornicotine | pEC50 ([2]; 1992, read-out: EC50 for NIC-stimulated, MEC-sensitive [3H]overflow): 6.32 | pEC50 ([2]; 1994, 0.1-30 μM, 10 min exposure, read-out: EC50, peak DA release): 6.48 | behavioral sensitization after repeated administration ([3]; 8 injections once every 48 hrs, nicotine 1 mg/kg, R(+) 0.3-10 mg/kg, S(-) nornicotine 10 mg/kg): robust behavioral sensitization | conditioned response to repeated administration (saline challenge) ([3]; 48 hrs after S(-) nicotine challenge): did not contribute to the observed behavioral sensitization | cumulated locomotor activity after saline challenge ([3]; R(+) experiment): 485 ± 41 number of photobeam interruptions/50 min session | cumulated locomotor activity after saline challenge ([3]; S(-) experiment): 429 ± 34 number of photobeam interruptions/50 min session | locomotor activity time course ([3]; acute S(-) nicotine 1 mg/kg, 20-40 min): did not alter activity | locomotor activity time course ([3]; acute S(-) nicotine 1 mg/kg, first 10 min): significantly decreased activity | locomotor activity time course ([3]; acute S(-) nicotine 1 mg/kg, last 10 min): significantly increased locomotor activity | cumulated locomotor activity vs saline-control ([3]; acute): not different from the saline-control group; also recorded: did not alter | cumulated locomotor activity after S(-) nicotine challenge ([3]; repeated S(-) nicotine group vs saline-control): significantly increased | time course after S(-) nicotine challenge ([3]; repeated S(-) nicotine, first 20 min (R(+) experiment) vs saline-control): significantly increased | time course after S(-) nicotine challenge ([3]; repeated S(-) nicotine, first 30 min (S(-) experiment)): significantly greater | locomotor activity time course ([3]; repeated S(-) nicotine, majority of time course): significant increase in activity | cumulated locomotor activity vs saline-control ([3]; repeated, 8 injections): significantly increased locomotor activity
